How the values were obtained:
Conditions in all cases: incubation time: 72 h
CAL-148 = test: drug sensitivity score (DSS), CellTox Green (DSS (AUC-based score)); higher = stronger drug effect (viability inhibition or cytotoxicity); extreme values may be limits of the assay
Summary of the method: (§1)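 A drug sensitivity score was derived from the area under each fitted dose-response curve. Breast cancer cells (20 µl suspension) were seeded onto compound in 384-well plates, using 5 concentrations 10-fold apart over a compound-specific 10,000-fold range, and incubated 72 h. Readouts were CellTox Green fluorescence and then CellTiter-Glo luminescence, with every plate normalised to 0.1 % DMSO and a positive kill control.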

MDA-MB-453 = test: as above
Summary of the method: as §1

MFM-223 [1] = test: as above
Summary of the method: as §1

CAL-120 = test: as above
Summary of the method: as §1

HCC1143 = test: as above
Summary of the method: as §1

HCC1599 [2] = test: as above
Summary of the method: as §1

CAL-51 [3] = test: as above
Summary of the method: as §1

BT-549 = test: as above
Summary of the method: as §1

DU-4475 = test: as above
Summary of the method: as §1

CAL-85-1 [4] = test: as above
Summary of the method: as §1

MDA-MB-231 = test: as above
Summary of the method: as §1

MCF-10A = test: as above
Summary of the method: as §1

BT-474 = test: as above
Summary of the method: as §1

HCC1937 [5] = test: as above
Summary of the method: as §1

MDA-MB-468 [6] = test: as above
Summary of the method: as §1

Hs578T = test: as above
Summary of the method: as §1

MDA-MB-436 = test: as above
Summary of the method: as §1

HDQ-P1 [7] = test: as above
Summary of the method: as §1

MFM-223 [8] = test: normalised viability (% of control), CellTiter-Blue; higher = more viable cells (about 100 = DMSO control)
Summary of the method: (§2)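 Seeded at 20 µl suspension per well onto compound-loaded 384-well plates, breast cancer cell lines were incubated 72 h. CellTiter-Blue fluorescence at 560/590 nm was then read, with each plate normalised to vehicle (100) and a positive kill control (0). Normalised viability is reported at a single listed concentration of the series.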

HCC1599 [9] = test: as above
Summary of the method: as §2

CAL-51 [10] = test: as above
Summary of the method: as §2

CAL-85-1 [11] = test: as above
Summary of the method: as §2

HCC1937 [12] = test: as above
Summary of the method: as §2

MDA-MB-468 [13] = test: as above
Summary of the method: as §2

HDQ-P1 [14] = test: as above
Summary of the method: as §2

SMILES | drug sensitivity score (CAL-148) | drug sensitivity score (MDA-MB-453) | drug sensitivity score (MFM-223 [1]) | drug sensitivity score (CAL-120) | drug sensitivity score (HCC1143) | drug sensitivity score (HCC1599 [2]) | drug sensitivity score (CAL-51 [3]) | drug sensitivity score (BT-549) | drug sensitivity score (DU-4475) | drug sensitivity score (CAL-85-1 [4]) | drug sensitivity score (MDA-MB-231) | drug sensitivity score (MCF-10A) | drug sensitivity score (BT-474) | drug sensitivity score (HCC1937 [5]) | drug sensitivity score (MDA-MB-468 [6]) | drug sensitivity score (Hs578T) | drug sensitivity score (MDA-MB-436) | drug sensitivity score (HDQ-P1 [7]) | normalised viability (MFM-223 [8]; 10 nM) | normalised viability (MFM-223 [8]; 1000 nM) | normalised viability (MFM-223 [8]; 10000 nM) | normalised viability (HCC1599 [9]; 10 nM) | normalised viability (HCC1599 [9]; 1000 nM) | normalised viability (HCC1599 [9]; 10000 nM) | normalised viability (CAL-51 [10]; 3 nM) | normalised viability (CAL-51 [10]; 30 nM) | normalised viability (CAL-51 [10]; 100 nM) | normalised viability (CAL-85-1 [11]; 3 nM) | normalised viability (CAL-85-1 [11]; 30 nM) | normalised viability (CAL-85-1 [11]; 100 nM) | normalised viability (HCC1937 [12]; 10 nM) | normalised viability (HCC1937 [12]; 1000 nM) | normalised viability (HCC1937 [12]; 10000 nM) | normalised viability (MDA-MB-468 [13]; 10 nM) | normalised viability (MDA-MB-468 [13]; 1000 nM) | normalised viability (MDA-MB-468 [13]; 10000 nM) | normalised viability (HDQ-P1 [14]; 3 nM) | normalised viability (HDQ-P1 [14]; 30 nM) | normalised viability (HDQ-P1 [14]; 100 nM)
COc1cc([C@@H]2c3cc4c(cc3[C@@H](O[C@@H]3O[C@@H]5CO[C@@H](C)O[C@H]5[C@H](O)[C@H]3O)[C@H]3COC(=O)[C@H]23)OCO4)cc(OC)c1O [Etoposide] | 5.65 | 0 | 0 | 1.57 | 0 | 0 | 9.25 | 0 | 0.895 | 1.64 | 0 | 0 | 0 | 0 | 7.2 | 20.3 | 0 | 0 | 99.2% | 107% | 81.6% | 99.1% | 94% | 72.3% | 98.6% | 85.8% | 77.3% | 99.9% | 93.9% | 102% | 78.5% | 64.9% | 38.9% | 107% | 73% | 35.9% | 90.8% | 91% | 33.6%
Oc1nc(-c2ccc(C(F)(F)F)cc2)nc2c1CSCC2 [XAV-939] | 0 | 0 | 0 | 0 | 0 | 0 | 0 | 0 | 0 | 0 | 0 | 0 | 0 | 0 | 0 | 3.23 | 0 | 3.77 | 110% | 100% | 86.9% | 118% | 95% | 115% | 102% | 101% | 101% | 96% | 92.8% | 94.7% | 113% | 89.3% | 122% | 111% | 105% | 98.4% | 113% | 104% | 98.6%
Cc1ccc(-n2nc(C(C)(C)C)cc2NC(=O)Nc2ccc(OCCN3CCOCC3)c3ccccc23)cc1 [Doramapimod] | 0 | 0 | 0 | 0 | 0 | 0 | 0 | 0 | 0 | 0 | 0 | 0 | 0 | 0 | 0 | 3.19 | 2.62 | 0 | 103% | 92.8% | 81.5% | 93.8% | 110% | 91.2% | 116% | 105% | 95.7% | 94.4% | 85.4% | 80.4% | 45.3% | 90.2% | 97.9% | 96% | 115% | 119% | 88.8% | 78% | 82.4%
CN(N=O)C(=O)N[C@@H](C=O)[C@@H](O)[C@H](O)[C@H](O)CO [Streptozocin] | 0 | 0 | 0 | 0 | 0 | 0 | 0 | 0 | 0 | 0 | 0 | 0 | 0 | 0 | 3.14 | 0 | 0 | 0 | 93.1% | 93% | 86.8% | 104% | 85.9% | 113% | 115% | 112% | 107% | 95.7% | 92.1% | 95.4% | 87.4% | 63.3% | 75.9% | 107% | 105% | 113% | 103% | 109% | 111%
